{"source": "patent US7148328B2", "about": "“Compositions and methods for regulating autolytic processes in bacteria” (Trustees of Dartmouth College, priority 2001, dated 2006)", "type_in_all_cases": "cell-based, S. aureus", "key": {"RAT mutant [1]": {"system": "RAT mutant", "assay": "Plating of antibiotic-treated cultures on agar plates without antibiotic selection (kill)", "method": "(§1) RAT plays a role in regulating autolytic activity of S. aureus. […] To evaluate whether the cell lysis of the RAT mutant was additive to the effect of a subinhibitory concentration of penicillin, 200 ng/ml of penicillin was added to a growing culture of the RAT mutant at an OD650 nm of 0.5, corresponding to the mid-log phase. […] This finding is consistent with the additive effect of penicillin upon the lytic propensity of the RAT mutant late in the growth cycle. […] In comparison to the parental strain without antibiotics, the RAT mutant with subinhibitory concentrations of penicillin has a 3–4 log kill."}, "wild-type strain": {"system": "wild-type strain", "assay": "Subinhibitory antibiotic added to growing culture at mid-log phase, optical density followed", "details": "200 ng/ml penicillin (subinhibitory) added at OD650 nm of 0.5, mid-log phase, FIG. 1"}, "RAT mutant [2]": {"system": "RAT mutant", "assay": "Subinhibitory antibiotic added to growing culture at mid-log phase, optical density followed", "details": "200 ng/ml penicillin (subinhibitory) added at OD650 nm of 0.5, mid-log phase, FIG. 1", "method": "as §1"}}, "data": [{"substance": "penicillin", "values": [{"measurement": "more kill of RAT mutant than the parental strain", "setting": "RAT mutant [1]; cultures with subinhibitory antibiotic plated on agar without antibiotic selection, compared with parental strain", "value": "1–2 log"}, {"measurement": "kill of RAT mutant in comparison to the parental strain without antibiotics", "setting": "RAT mutant [1]; subinhibitory concentrations of penicillin, compared with parental strain without antibiotics", "value": "3–4 log"}, {"measurement": "change in optical density (growth) after addition of antibiotic", "setting": "wild-type strain", "value": "no increase in optical density"}, {"measurement": "change in optical density (cell lysis) after addition of antibiotic", "setting": "RAT mutant [2]", "value": "further reduction in optical density"}]}]}
